Structures can show the parent of a compound that is named as a salt. ± gives the standard deviation of the averaged measurements.
Columns and labels:
[1] = system: 409B2 hiPSC (iCRISPR Cas9, FRMD7 editing); assay: cell survival relative to solvent control (fold (ratio to mock)); higher = more surviving cells
Procedure: (§1)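 Subset screen of 55 drugs tested at 5 concentrations around the effective screening dose, in 409B2 iCRISPR Cas9 hiPSCs editing FRMD7 with a ssDNA donor. Drugs were applied for 24 h. Viability was read by resazurin and editing outcomes by amplicon sequencing (HDR, NHEJ <2 bp microhomology, MMEJ ≥2 bp microhomology). Values are relative to solvent mock controls; two biological replicates.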

[2] = system: 409B2 hiPSC (iCRISPR Cas9, FRMD7 editing); assay: NHEJ-attributed indel frequency relative to solvent control (fold (ratio to mock)); higher = more NHEJ outcomes
Procedure: as §1

[3] = system: 409B2 hiPSC (iCRISPR Cas9, FRMD7 editing); assay: MMEJ-attributed deletion frequency relative to solvent control (fold (ratio to mock)); higher = more MMEJ outcomes
Procedure: as §1

[4] = system: 409B2 hiPSC (iCRISPR Cas9, FRMD7 editing); assay: HDR (precise edit) frequency relative to solvent control (fold (ratio to mock)); higher = more homology-directed repair outcomes
Procedure: as §1

Row | SMILES | cell survival ([1]; 200 nM) | cell survival ([1]; 500 nM) | cell survival ([1]; 1000 nM) | cell survival ([1]; 2000 nM) | cell survival ([1]; 5000 nM) | NHEJ-attributed indel frequency ([2]; 200 nM) | NHEJ-attributed indel frequency ([2]; 500 nM) | NHEJ-attributed indel frequency ([2]; 1000 nM) | NHEJ-attributed indel frequency ([2]; 2000 nM) | NHEJ-attributed indel frequency ([2]; 5000 nM) | MMEJ-attributed deletion frequency ([3]; 200 nM) | MMEJ-attributed deletion frequency ([3]; 500 nM) | MMEJ-attributed deletion frequency ([3]; 1000 nM) | MMEJ-attributed deletion frequency ([3]; 2000 nM) | MMEJ-attributed deletion frequency ([3]; 5000 nM) | HDR ([4]; 200 nM) | HDR ([4]; 500 nM) | HDR ([4]; 1000 nM) | HDR ([4]; 2000 nM) | HDR ([4]; 5000 nM) | further results
1 | O=C(O[C@H]1CN2CCC1CC2)N1CCc2ccccc2[C@@H]1c1ccccc1 [Solifenacin succinate] (in DMSO) | 1.04 | 1.16 | 0.907 | 1.06 | 1.1 | 0.9657 ± 0.0021 | 0.993 ± 0.015 | 0.999 ± 0.026 | 1.01 ± 0.017 | 0.989 ± 0.032 | 0.989 ± 0.091 | 0.991 ± 0.017 | 0.924 ± 0.054 | 0.937 ± 0.033 | 1.01 ± 0.12 | 1.14 ± 0.017 | 1.06 ± 0.051 | 1.04 ± 0.12 | 1.02 ± 0.015 | 1.09 ± 0.039 | 
2 | CSCCC(N)C(=O)O (racemic) [DL-Methionine] (in H2O) | 0.957 | 0.861 |  |  |  | 1.03 ± 0.011 | 1.02 ± 0.016 |  |  |  | 0.877 ± 0.13 | 0.912 ± 0.042 |  |  |  | 0.937 ± 0.044 | 0.917 ± 0.011 |  |  |  | cell survival ([1]; 20 nM): 0.974; cell survival ([1]; 50 nM): 0.972; cell survival ([1]; 100 nM): 0.891; NHEJ-attributed indel frequency ([2]; 20 nM): 1.01 ± 0.025; NHEJ-attributed indel frequency ([2]; 50 nM): 1.038 ± 0.0021; NHEJ-attributed indel frequency ([2]; 100 nM): 1.04 ± 0.0044; MMEJ-attributed deletion frequency ([3]; 20 nM): 0.912 ± 0.069; MMEJ-attributed deletion frequency ([3]; 50 nM): 0.924 ± 0.017; MMEJ-attributed deletion frequency ([3]; 100 nM): 0.802 ± 0.018; HDR ([4]; 20 nM): 1.001 ± 0.0057; HDR ([4]; 50 nM): 0.932 ± 0.021; HDR ([4]; 100 nM): 0.943 ± 0.051
3 | C[C@@H]1O[C@@H](O[C@H]2C[C@@H](O)[C@]3(CO)[C@H]4[C@H](O)C[C@]5(C)[C@@H](C6=CC(=O)OC6)CC[C@]5(O)[C@@H]4CC[C@]3(O)C2)[C@H](O)[C@H](O)[C@H]1O [Ouabain Octahydrate] (in H2O) |  |  |  | 0.0512 | 0.0777 |  |  |  | 0.523 ± 0.026 | 0.539 ± 0.1 |  |  |  | 3.06 ± 0.43 | 2.82 ± 1.1 |  |  |  | 0.0693 ± 0.021 | 0.0683 ± 0.03 | cell survival ([1]; 10000 nM): 0.0589; cell survival ([1]; 20000 nM): 0.0655; cell survival ([1]; 50000 nM): 0.585; NHEJ-attributed indel frequency ([2]; 10000 nM): 0.435 ± 0.13; NHEJ-attributed indel frequency ([2]; 20000 nM): 0.392 ± 0.093; NHEJ-attributed indel frequency ([2]; 50000 nM): 0.736 ± 0.38; MMEJ-attributed deletion frequency ([3]; 10000 nM): 2.58 ± 0.43; MMEJ-attributed deletion frequency ([3]; 20000 nM): 2.31 ± 0.4; MMEJ-attributed deletion frequency ([3]; 50000 nM): 1.87 ± 1.1; HDR ([4]; 10000 nM): 0.0814 ± 0.045; HDR ([4]; 20000 nM): 0.068 ± 0.013; HDR ([4]; 50000 nM): 0.505 ± 0.64
4 | CO[C@@H]1[C@H](OC(=O)/C=C/C=C/C=C/C=C/C(=O)O)CC[C@]2(CO2)[C@H]1[C@@]1(C)O[C@@H]1CC=C(C)C [Fumagillin] (in DMSO) | 0.0162 | 0.0244 |  |  |  | 0.604 ± 0.14 | 0.537 ± 0.071 |  |  |  | 0.705 ± 0.15 | 0.656 ± 0.17 |  |  |  | 0.512 ± 0.27 | 0.471 ± 0.18 |  |  |  | cell survival ([1]; 20 nM): 0.264; cell survival ([1]; 50 nM): 0.134; cell survival ([1]; 100 nM): 0.0522; NHEJ-attributed indel frequency ([2]; 20 nM): 0.883 ± 0.019; NHEJ-attributed indel frequency ([2]; 50 nM): 0.767 ± 0.041; NHEJ-attributed indel frequency ([2]; 100 nM): 0.723 ± 0.14; MMEJ-attributed deletion frequency ([3]; 20 nM): 0.749 ± 0.1; MMEJ-attributed deletion frequency ([3]; 50 nM): 0.7745 ± 0.0004; MMEJ-attributed deletion frequency ([3]; 100 nM): 0.739 ± 0.15; HDR ([4]; 20 nM): 1.073 ± 0.0017; HDR ([4]; 50 nM): 0.886 ± 0.049; HDR ([4]; 100 nM): 0.791 ± 0.23
5 | CC1(C)S[C@@H]2[C@H](NC(=O)COc3ccccc3)C(=O)N2[C@H]1C(=O)O [Penicillin V potassium salt] (in DMSO) | 0.876 | 1.15 | 0.976 | 0.894 | 0.923 | 1.006 ± 0.0015 | 1.012 ± 0.0034 | 0.9903 ± 0.0037 | 1 ± 0.021 | 1.01 ± 0.013 | 1.02 ± 0.097 | 0.994 ± 0.04 | 0.963 ± 0.15 | 1.1 ± 0.047 | 1.05 ± 0.11 | 0.992 ± 0.094 | 1.05 ± 0.012 | 0.992 ± 0.02 | 1.01 ± 0.062 | 0.964 ± 0.11 | 

From the supplement of paper PMC12698765
